Laboratory results published in patent publication US8198333B2, “Cytostatic drug composition” (Geopharma Produktions GmbH, priority 2004, dated 2012).

How the values were obtained:
[1] = system: HAT-29; assay: Cytostatic activity, EZ4U cell proliferation and cytotoxicity test, colon carcinoma cell line HAT-29; type: cell-based; conditions: three days
Protocol: (§1) Cell lines of a colon carcinoma and a pancreas carcinoma, such as Capan-1, DLD-1, HT 29, HCT-8, MLA-PA-CA2, PANCI, BXPC-3, ASPC-1, and HT-29, were examined. The tested cancer cell lines were stored in liquid nitrogen. After defrosting, the cancer cells were cultivated in culture flasks with RPMI-1640+glutamine medium (Gibco® No. 5240025) at 37° C./5% CO2 atmosphere for up to 14 days so that a monolayer of cells was able to form. Thereupon, the cells were harvested with trypsin+EDTA (Gibco® No. 15400-054) and washed twice with an RPMI-medium.
(§2) Apart from poly-[2-(2-ethoxyethoxyethyl)guanidinium hydrochloride], the chemotherapeutic agents cisplatin, epirubicin, mitomycin C and 5-fluorouracil were tested by way of comparison. Therefor, the compounds were at first dissolved according to the respective instructions of the manufacturer and were then stored as a stock solution in aliquots of 1 ml each (concentration of drug substance: 1000 μg/ml) in liquid nitrogen at −180° C. The dissolved substances were used on the very same day.
(§3) In order to determine the cytotoxic activity of the substances, the cancer cells were transferred from the culture flasks with an RPMI-washed suspension at a concentration of 20,000 cells in 200 μl onto microtiter plates. In the presence of varying concentrations of the test substances, the cancer cells were subsequently incubated for three days at a temperature of 37° C. and in an atmosphere of 5% CO2. For the poly-[2-(2-ethoxyethoxyethyl)guanidinium hydrochloride], concentrations of 0.12 to 500 μg/ml (factor 2 dilutions) were used in all test arrangements. After three days of incubation, the evaluation was carried out by means of the nonradioactive cell proliferation and cytotoxicity test EZ4U (Biomedica No. BI-5000 10×96 determinations). After three hours of incubation with EZ4U, the evaluation was carried out photometrically in percent at a wavelength of 49/630 nm in a slidephotometer (extinction of the test sample divided by extinction of the control-sample blank value).

[2] = system: HCT-8; assay: Cytostatic activity, EZ4U test, colon carcinoma cell line HCT-8; type: cell-based; conditions: three days
Protocol: as §1, §2, §3

[3] = system: DLD-1; assay: Cytostatic activity, EZ4U test, colon carcinoma cell line DLD-1; type: cell-based; conditions: three days
Protocol: as §1, §2, §3

[4] = system: HCT-15; assay: Cytostatic activity, EZ4U test, colon carcinoma cell line HCT-15; type: cell-based; conditions: three days
Protocol: as §1, §2, §3

[5] = system: Colon 320DM; assay: Cytostatic activity, EZ4U test, colon carcinoma cell line Colon 320DM; type: cell-based; conditions: three days
Protocol: as §1, §2, §3

[6] = system: Colon 205; assay: Cytostatic activity, EZ4U test, colon carcinoma cell line Colon 205; type: cell-based; conditions: three days
Protocol: as §1, §2, §3

[7] = system: AsPc-1; assay: Cytostatic activity, EZ4U test, pancreas carcinoma cell line AsPc-1; type: cell-based; conditions: three days
Protocol: as §1, §2, §3

[8] = system: BxPc-3; assay: Cytostatic activity, EZ4U test, pancreas carcinoma cell line BxPc-3; type: cell-based; conditions: three days
Protocol: as §1, §2, §3

[9] = system: Capan-1; assay: Cytostatic activity, EZ4U test, pancreas carcinoma cell line Capan-1; type: cell-based; conditions: three days
Protocol: as §1, §2, §3

[10] = system: Panc-1; assay: Cytostatic activity, EZ4U test, pancreas carcinoma cell line Panc-1; type: cell-based; conditions: three days
Protocol: as §1, §2, §3

[11] = system: MIA PaCa-2; assay: Cytostatic activity, EZ4U test, pancreas carcinoma cell line MIA PaCa-2; type: cell-based; conditions: three days
Protocol: as §1, §2, §3

[12] = system: lymphocytes of healthy test persons; assay: Vitality of lymphocytes, trypan blue; type: cell-based, human; conditions: for Vitality of lymphocytes in %: 24 hours
Protocol: In addition, lymphocytes of healthy test persons were examined. In doing so, a total amount of 100 ml blood was drawn into EDTA test tubes. The lymphocytes were isolated from the full blood by means of a Mono-Poly Resolving Medium/Ficol-Hypaque gradient, were washed three times with an HBSS buffer and, prepared in this manner, they were added to the test stock.
as §2
The vitality of the lymphocytes was determined in a suspension of 1.2×10^7/ml at varying concentrations of the test substances. In the presence of the test substances, the cell suspensions were incubated for 24 hours at 37° C. and in an atmosphere of 5% CO2 and were then dyed with trypan blue. After dyeing, the lymphocytes were applied onto the counting chamber and their vitality was evaluated in percent.

[13] = type: in vivo; conditions: intravenous or intraperitoneal, up to 15 mg/kg body weight
Protocol: After an (intravenous or intraperitoneal) systemic administration of poly-[2-(2-ethoxyethoxyethyl)guanidinium hydrochloride] in amounts of up to 15 mg/kg body weight, serum concentrations of up to 100 μg/ml are measured in the rat's blood after two hours, whereby, at the same time, the tolerance is good. Therefore, poly-[2-(2-ethoxyethoxyethyl)guanidinium hydrochloride] can be used as a cytostatic drug.

[14] = system: cancer cells; assay: Cytostatic activity in cancer cell lines (colon and pancreas carcinoma), summary; type: cell-based; conditions: colon carcinoma (HT-29, HCT-8, DLD-1) and pancreas carcinoma (ASPC-1, BXPC-3, CAPAN-1, PANC-1) cell lines
Protocol: as §1
as §3, with “After three hours of incubation with EZ4U, the evaluation was carried out photometrically in percent at a wavelength of 49/630 nm in a slidephotometer (extinction of the test sample divided by extinction of the control-sample blank value).” left out

poly-[2-(2-ethoxyethoxyethyl)guanidinium hydrochloride]
vitality in % ([1]; 0.125 μg/ml): 76% | vitality in % ([1]; 0.25 μg/ml): 85% | vitality in % ([1]; 0.5 μg/ml): 98% | vitality in % ([1]; 1 μg/ml): 88% | vitality in % ([1]; 2 μg/ml): 77% | vitality in % ([1]; 4 μg/ml): 76% | vitality in % ([1]; 8 μg/ml): 47% | vitality in % ([1]; 16 μg/ml): 21% | vitality in % ([1]; 32 μg/ml): 13% | vitality in % ([1]; 64 μg/ml): 11% | vitality in % ([2]; 0.125 μg/ml): 88% | vitality in % ([2]; 0.25 μg/ml): 70% | vitality in % ([2]; 0.5 μg/ml): 79% | vitality in % ([2]; 1 μg/ml): 85% | vitality in % ([2]; 2 μg/ml): 90% | vitality in % ([2]; 4 μg/ml): 114% | vitality in % ([2]; 8 μg/ml): 91% | vitality in % ([2]; 16 μg/ml): 34% | vitality in % ([2]; 32 μg/ml): 15% | vitality in % ([2]; 64 μg/ml): 11% | vitality in % ([3]; 2 μg/ml): 103% | vitality in % ([3]; 4 μg/ml): 86% | vitality in % ([3]; 8 μg/ml): 49% | vitality in % ([3]; 16 μg/ml): 26% | vitality in % ([3]; 32 μg/ml): 17% | vitality in % ([3]; 64 μg/ml): 15% | vitality in % ([4]; 2 μg/ml): 81% | vitality in % ([4]; 4 μg/ml): 81% | vitality in % ([4]; 8 μg/ml): 69% | vitality in % ([4]; 16 μg/ml): 25% | vitality in % ([4]; 32 μg/ml): 18% | vitality in % ([4]; 64 μg/ml): 16% | vitality in % ([5]; 2 μg/ml): 79% | vitality in % ([5]; 4 μg/ml): 37% | vitality in % ([5]; 8 μg/ml): 26% | vitality in % ([5]; 16 μg/ml): 24% | vitality in % ([5]; 32 μg/ml): 22% | vitality in % ([5]; 64 μg/ml): 21% | vitality in % ([6]; 2 μg/ml): 70% | vitality in % ([6]; 4 μg/ml): 59% | vitality in % ([6]; 8 μg/ml): 27% | vitality in % ([6]; 16 μg/ml): 16% | vitality in % ([6]; 32 μg/ml): 16% | vitality in % ([6]; 64 μg/ml): 15% | vitality in % ([7]; 2 μg/ml): 92% | vitality in % ([7]; 4 μg/ml): 70% | vitality in % ([7]; 8 μg/ml): 50% | vitality in % ([7]; 16 μg/ml): 15% | vitality in % ([7]; 32 μg/ml): 12% | vitality in % ([7]; 64 μg/ml): 13% | vitality in % ([8]; 2 μg/ml): 63% | vitality in % ([8]; 4 μg/ml): 74% | vitality in % ([8]; 8 μg/ml): 44% | vitality in % ([8]; 16 μg/ml): 18% | vitality in % ([8]; 32 μg/ml): 11% | vitality in % ([8]; 64 μg/ml): 9% | vitality in % ([9]; 2 μg/ml): 115% | vitality in % ([9]; 4 μg/ml): 111% | vitality in % ([9]; 8 μg/ml): 95% | vitality in % ([9]; 16 μg/ml): 114% | vitality in % ([9]; 32 μg/ml): 79% | vitality in % ([9]; 64 μg/ml): 46% | vitality in % ([10]; 2 μg/ml): 88% | vitality in % ([10]; 4 μg/ml): 90% | vitality in % ([10]; 8 μg/ml): 55% | vitality in % ([10]; 16 μg/ml): 30% | vitality in % ([10]; 32 μg/ml): 16% | vitality in % ([10]; 64 μg/ml): 11% | vitality in % ([11]; 2 μg/ml): 106% | vitality in % ([11]; 4 μg/ml): 97% | vitality in % ([11]; 8 μg/ml): 58% | vitality in % ([11]; 16 μg/ml): 16% | vitality in % ([11]; 32 μg/ml): 12% | vitality in % ([11]; 64 μg/ml): 11% | Vitality of lymphocytes in % ([12]; 12.5 μg/ml): 98% | Vitality of lymphocytes in % ([12]; 25 μg/ml): 100% | Vitality of lymphocytes in % ([12]; 50 μg/ml): 96% | Vitality of lymphocytes in % ([12]; 100 μg/ml): 98% | Vitality of lymphocytes in % ([12]; 250 μg/ml): 30% | Vitality of lymphocytes in % ([12]; 500 μg/ml): 16% | Vitality of lymphocytes in % ([12]; 1000 μg/ml): 1% | concentrations from which cytostatic activity has been observed ([12]; healthy endogenous cells such as lymphocytes (table 4)): ≥ 100 µg/mL | serum concentrations in the rat's blood ([13]; after two hours): up to 100 μg/ml | tolerance ([13]; rat): good | cytostatic activity [14]: excellent cytostatic activity

N.N.[Cl][Pt][Cl] [Cisplatin]
vitality in % ([7]; 0.025 μg/ml): 85% | vitality in % ([7]; 0.25 μg/ml): 89% | vitality in % ([7]; 2.5 μg/ml): 53% | vitality in % ([8]; 0.025 μg/ml): 87% | vitality in % ([8]; 0.25 μg/ml): 65% | vitality in % ([8]; 2.5 μg/ml): 93% | vitality in % ([9]; 0.025 μg/ml): 94% | vitality in % ([9]; 0.25 μg/ml): 54% | vitality in % ([9]; 2.5 μg/ml): 36%

CO[C@@]12[C@H](COC(N)=O)C3=C(C(=O)C(C)=C(N)C3=O)N1C[C@@H]1N[C@@H]12 [Mitomycin C]
vitality in % ([7]; 0.015 μg/ml): 98% | vitality in % ([7]; 0.15 μg/ml): 89% | vitality in % ([7]; 1.5 μg/ml): 65% | vitality in % ([8]; 0.015 μg/ml): 100% | vitality in % ([8]; 0.15 μg/ml): 91% | vitality in % ([8]; 1.5 μg/ml): 47% | vitality in % ([9]; 0.015 μg/ml): 59% | vitality in % ([9]; 0.15 μg/ml): 30% | vitality in % ([9]; 1.5 μg/ml): 22% | vitality in % ([10]; 0.015 μg/ml): 104% | vitality in % ([10]; 0.15 μg/ml): 103% | vitality in % ([10]; 1.5 μg/ml): 55%

COc1cccc2c1C(=O)c1c(O)c3c(c(O)c1C2=O)C[C@@](O)(C(=O)CO)C[C@@H]3O[C@H]1C[C@H](N)[C@@H](O)[C@H](C)O1 [Epirubicin]
vitality in % ([7]; 0.12 μg/ml): 105% | vitality in % ([7]; 1.19 μg/ml): 59% | vitality in % ([7]; 11.9 μg/ml): 55% | vitality in % ([8]; 0.12 μg/ml): 76% | vitality in % ([8]; 1.19 μg/ml): 55% | vitality in % ([8]; 11.9 μg/ml): 62% | vitality in % ([9]; 0.12 μg/ml): 50% | vitality in % ([9]; 1.19 μg/ml): 35% | vitality in % ([9]; 11.9 μg/ml): 54% | vitality in % ([10]; 0.12 μg/ml): 111% | vitality in % ([10]; 1.19 μg/ml): 43% | vitality in % ([10]; 11.9 μg/ml): 61%

O=c1[nH]cc(F)c(=O)[nH]1 [5-Fluorouracil]
vitality in % ([7]; 0.6 μg/ml): 92% | vitality in % ([7]; 6 μg/ml): 88% | vitality in % ([7]; 60 μg/ml): 71% | vitality in % ([8]; 0.6 μg/ml): 86% | vitality in % ([8]; 6 μg/ml): 79% | vitality in % ([8]; 60 μg/ml): 67% | vitality in % ([9]; 0.6 μg/ml): 46% | vitality in % ([9]; 6 μg/ml): 38% | vitality in % ([9]; 60 μg/ml): 23% | vitality in % ([10]; 0.6 μg/ml): 80% | vitality in % ([10]; 6 μg/ml): 77% | vitality in % ([10]; 60 μg/ml): 62%
